Where two headings read alike, the source gives them in different places.
Columns and labels:
[1] = test system: HT1197 cells; experiment: Cell viability assay; type: cell-based; settings: read-out: Cisplatin GI50 (d5), 5-day viability assay
[2] = test system: HT1376 cells; experiment: Cell viability assay; type: cell-based
[3] = test system: TCCSUP cells; experiment: Cell viability assay; type: cell-based; settings: read-out: Cisplatin GI50 (d5), 5-day viability assay
[4] = test system: T24 cells; experiment: Cell viability assay; type: cell-based; settings: read-out: Cisplatin GI50 (d5), 5-day viability assay
[5] = test system: SW1710 cells; experiment: Cell viability assay; type: cell-based; settings: read-out: Cisplatin GI50 (d5), 5-day viability assay
[6] = test system: JMSU1 cells; experiment: Cell viability assay; type: cell-based; settings: read-out: Cisplatin GI50 (d5), 5-day viability assay
[7] = test system: RT4 cells; experiment: Cell viability assay; type: cell-based; settings: read-out: Cisplatin GI50 (d5), 5-day viability assay
[8] = test system: SCaBER cells; experiment: Cell viability assay; type: cell-based; settings: read-out: Cisplatin GI50 (d5), 5-day viability assay
[9] = test system: J82 cells; experiment: Cell viability assay; type: cell-based; settings: read-out: Cisplatin GI50 (d5), 5-day viability assay
[10] = test system: Cal29 cells; experiment: Cell viability assay; type: cell-based; settings: read-out: Cisplatin GI50 (d5), 5-day viability assay
[11] = test system: BFTC905 cells; experiment: Cell viability assay; type: cell-based; settings: read-out: Cisplatin GI50 (d5), 5-day viability assay
[12] = test system: UMUC3 cells; experiment: Cell viability assay; type: cell-based; settings: read-out: Cisplatin GI50 (d5), 5-day viability assay
[13] = test system: KMBC2 cells; experiment: Cell viability assay; type: cell-based; settings: read-out: Cisplatin GI50 (d5), 5-day viability assay
[14] = test system: KARPAS-422 xenograft tumors; experiment: KARPAS-422 xenograft efficacy study; type: in vivo; settings: KARPAS-422 mouse xenograft model; 25 mg/kg, PO, QD
[15] = read-out: GI50, long-term cell viability assay, HT1376 cells, day 18

Compound N.N.[Cl][Pt][Cl] [Cisplatin] has a GI50 [1] of 3880 nM, a GI50 ([2]; read-out: Cisplatin GI50 (d5), HT1376, 5-day viability assay) of 1950 nM and a GI50 [3] of 220 nM. For the same compound, the GI50 [4] was 810 nM, the GI50 [5] was 2150 nM and the GI50 [6] was 730 nM. It also gave a GI50 [7] of 3050 nM, a GI50 [8] of 1200 nM and a GI50 [9] of 450 nM. The GI50 [10] was 3010 nM, the GI50 [11] was 760 nM and the GI50 [12] was 350 nM. It also gave a GI50 [13] of 3640 nM.
With COc1cc(C)[nH]c(=O)c1CN1CCc2c(Cl)cc([C@H](OC)C3COC3)c(Cl)c2C1=O [PF-06821497] the GI50 [2, 15] was about 5 nM.
Cc1ncccc1-c1cnc(NCc2c(F)ccc3c2CCO3)n2cnnc12 [MAK683] showed a GI50 [2, 15] of 73 nM.
With CCN(c1cc(-c2ccc(CN3CCOCC3)cc2)cc(C(=O)NCc2c(C)cc(C)[nH]c2=O)c1C)C1CCOCC1 [Tazemetostat] the “tumor response” value [14] was “modest TGI”.
